In patent US6339062B1, “Retroinverso polypeptides that mimic or inhibit thrombospondin activity” (Inkine Pharmaceutical Company, Inc., priority 1998, dated 2002):
Where no end group is shown, it is not given here. [ ]: non-standard residue; d: D form. The star is where a group is joined. Acm = CC(=O)NC*; For = O=C*

How the values were obtained:
[1] = tested on: mouse B16-F10 melanoma cells; assay: Boyden chamber assay, TSP-1 mediated invasion of collagen (Examples 29, 30); type: cell-based; settings: for dose-dependent effect on melanoma cell invasion: FIG. 19
Method: Cell invasion was investigated by the Boyden Chamber Invasion Assay using the modified Boyden chamber. T. Frandsen et al., Fibrinolysis, 6: 71-76 (1992). Polycarbonate filters, 12 μm pore size, e.g., Millicell, Millipore Corporation, Bedford, Ma, were coated with 100 μg Type IV collagen (1 mg/ml 60% EtOH) and dried overnight at 25° C. Blind-well Boyden chambers are filled with 600 μl of serum-free media containing 0.1% BSA in the lower compartment, and the coated filters will be mounted in the chamber. Approximately 50,000 cells (tested to be greater than 95% viable) suspended in 400 μl of the same media will be placed in the upper chamber of the apparatus and allowed to settle onto the collagen-coated membrane. Varying concentrations of TSP-1 (0-150 nM) will be placed in the lower compartment and any neutralizing antibodies as well as peptides will be placed in the upper chamber. After an incubation period of about 3 to 6 hours at 37° C., the cells on the upper surface of the filter will be removed with a cotton swab. The filters are then fixed in 3% glutaraldehyde solution and stained with 0.5% crystal violet solution. Invasive cells adhering to the under-surface of the filter are counted using a phase contrast microscope (400×).
Using this assay, mouse B16-F10 melanoma cells (50,000) were plated on the collagen-coated disk of the Boyden chamber apparatus. The top chamber contained melanoma cells in the presence of 500 μg/ml of the TSP-1 derived peptide and the bottom chamber contained 20 μg/ml TSP-1. After 6 hours, cells traversing the collagen were counted as cells attached to the underside of the collagen-coated disk. Five representative fields per chamber in duplicate were counted. The data shown in FIG. 18 represents the average per field and the error bars represent the standard deviation. The scrambled peptide, Val-Cys-Thr-Gly-Ser-Cys (SEQ ID NO: 7), the irrelevant peptide, Ala-Ser-Val-Thr-Ala-Arg (SEQ ID NO: 38), buffer, and the d-amino acid Cys-Ser-Val-Thr-Cys-Gly (SEQ ID NO: 40) had no effect on invasion.
The experiments were performed as described for Example 29. […] In contrast, d-Cys-Ser-Val-Thr-Cys-Gly (SEQ ID NO: 40) had no effect.

[2] = tested on: mouse B16-F10 melanoma cells; assay: Melanoma lung metastasis, one bolus i.v. or i.p. (Example 22); type: in vivo
Method: One bolus injection of Cys-(Acm)-Ser-Val-Thr-Cys-(Acm)-Gly (SEQ ID NO: 6) peptide (1 mg/mouse intravenously or 5 mg/mouse intraperitoneally ) was administered followed by intravenous injection of mouse B16-F10 melanoma cells (100,000). Each treatment group consisted of 5 animals. After 10 days animals were sacrificed and lung tumors counted. […] Error bars represent the standard error of the mean. P values between control and peptide-treated groups <0.001.

[3] = tested on: mouse B16-F10 melanoma cells; assay: Melanoma lung metastasis, daily i.p. from day 3 after implantation (Example 23); type: in vivo, mice; settings: daily i.p. for 10 days from day 3, FIG. 14
Method: Mice were intravenously injected with mouse B16-F10 melanoma cells (75,000). After 3 days, each mouse was treated daily by intraperitoneal injection with either PBS, 0.01 mg, or 1 mg of peptide for 10 days. Treatment groups consisted of 5 mice. After 10 days animals were sacrificed and lung tumors counted. Error bars represent the standard error of the mean. p<0.001 between control- and peptide-treated groups.

[4] = Stability toward oxidation; type: physicochemical; settings: compared with unblocked peptide
[5] = tested on: mouse B16-F10 melanoma cells; assay: Direct adhesion to dried peptide (Example 31); type: cell-based; settings: 10 μg of each peptide; one hour; FIG. 20
Method: Peptide effect on direct adhesion was tested by drying 10 μg of each peptide on the bottom of a 96well microtiter plate. Plates were blocked with BSA. Mouse B16-F10 melanoma cells (50,000) were plated in each well and allowed to attach for one hour. Non-adherent cells were aspirated out, plates rinsed, and adherent cells were fixed, stained, and counted. The error bars represent the standard deviation.

[6] = tested on: mouse B16-F10 melanoma cells; assay: Tumor cell metastasis, one i.p. injection of peptide (Example 32); type: in vivo; settings: 1 mg peptide i.p. once; 14 days; FIG. 21
Method: Mouse B16-F10 melanoma cells (75,000 ) were injected intravenously and was immediately followed by one intraperitoneal injection of 1 mg of peptide. Six animals were treated with each peptide. Animals were sacrificed 14 days later and lung colonies counted. The data shown in FIG. 21 represents the mean of lung colonies and the error bars represent the standard error of the mean. The peptides, d-Gly-Cys-(Acm)-Thr-Val-Ser-Cys-(Acm) (retroinverso) (SEQ ID NO: 35), and l-Cys-(Acm)-Ser-Val-Thr-Cys-(Acm)-Gly (SEQ ID NO: 6) inhibited metastasis by more than 80%, whereas d-Cys-Ser-Val-Thr-Cys-Gly (SEQ ID NO: 40) had no effect.

[7] = tested on: platelets on absorbed fibronectin (FN); assay: Competitive platelet adhesion assay, absorbed fibronectin (Example 19); type: cell-based; settings: 250 μg/ml; absorbed protein FN
Method: (§1) The direct adhesion assay of Example 18 was modified to measure the ability of the peptide compounds of the invention to compete with intact thrombospindin or fibronectin for adhesion of platelets.
(§2) In this assay, thrombospondin (TSP) or fibronectin (FN) was absorbed onto microtiter dish as described in Example 18. The assay was similar to Example 18 except that before platelets were added to the microtiter dishes they were preincubated with 250 μg/ml of various ligands.

[8] = tested on: melanoma cells on absorbed thrombospondin; assay: Competitive assay, thrombospondin specific adhesion to melanoma cells (Example 17); type: cell-based, mouse
Text: The direct adhesion assay of Example 16 was modified to measure the ability of the peptide compounds of the invention to compete with intact thrombospondin for adhesion to melanoma cells.
In this assay, intact thrombospondin is absorbed onto microtiter dishes as described in Example 16. […]

[9] = tested on: platelets on absorbed thrombospondin (TSP); assay: Competitive platelet adhesion assay, absorbed thrombospondin (Example 19); type: cell-based; settings: 250 μg/ml; absorbed protein TSP
Method: as §1, §2

[10] = tested on: Mouse B16 F10 melanoma cells; assay: Direct adhesion assay (Example 16); type: cell-based; settings: absorbed compound 2 μg
Method: It is believed that thrombospondin acts in metastasis through its adhesive properties. An assay was developed, generally in accordance with the disclosure of Tuszynski et al., Anal. Bio., 184:189-91 (1990), which evaluates the ability of melanoma cells to adhere to the thrombospondin fragments or analogs of the invention. In this assay, wells of a 96-well microtiter dish (Costar, Cambridge, Mass.) were incubated for two to three hours with […] of a […] solution of various ligands in 20 mM NaCl, pH 7.3. Thrombospondin (purified by the method of Tuszynski et al., J. Biol. Chem., 260:12240-5 (1985), fibronectin (Sigma Chemical Co., Missouri) served as the positive control. Bovine serum albumin (BSA) (Sigma Chemical Co.) served as the negative control. Thrombospondin analogs of the invention p1, p5 and p6 were synthesized as described in Examples 1 through 3. Following peptide adhesion to the microtiter dish, the wells were aspirated, treated with 200 μl phosphate buffered saline (PBS) containing 1% BSA for 1 hour and then washed three more times with 200 μl PBS.
Mouse B16 F10 melanoma cells were grown and harvested during log phase of growth using standard procedures. The harvested cells were washed two times in serum-free Dulbecco's minimum essential medium (DMEM) (Flow Laboratories) and suspended in DMEM at a final concentration of 4×10^5 cells/ml. Of the cell suspension 100 μl was added to each well of the microtiter dish containing the various ligands and the dish incubated at 37° C. in a CO2 incubator for 1 hour. Nonadherent cells were removed by aspiration and the wells washed three times with 200 μl of PBS. The total cell-associated protein was determined by dissolving the attached cells directly in the microtiter wells with 200 μl of the Pierce BCA working solution (Pierce Chem. Co. Booklet No. 23225 (1987)). […] Plates were allowed to cool to room temperature, cover sheets were removed, and the absorbance of each well was determined at 562 nm with a microtiter plate reader (Biotek, Burlington, Vt.)

[11] = tested on: B16 F10 mouse melanoma cells; assay: Antimetastatic activity in vivo (Example 20); design: species or system C57 black mice; settings: 16 days
[12] = tested on: platelets (platelet-rich-plasma); assay: Platelet aggregation assay in platelet-rich-plasma (Example 8); type: cell-based; settings: in vitro; FIG. 22
Method: Platelet aggregation was monitored on a single-channel aggregometer equipped to measure luminescence (Chromo-Log, Havertown, Pa.). Platelet-rich-plasma (PRP) was obtained from whole blood anticoagulated with 0.38% sodium citrate by centrifugation at 150×g for 20 minutes.
0.5 ml aliquots of platelet-rich-plasma were aggregated by stirring with 2 uM ADP in the presence of various concentrations of Cys-Ser-Val-Thr-Cys-Gly (SEQ ID NO: 21) and Gly-Arg-Gly-Asp-Ser (SEQ ID NO: 36). Aggregation was measured at 37° as decrease in optical absorbance vs. time in a chrono-log aggregometer and is shown in FIG. 8. Peptides designated in each panel are represented by their amino acid sequence using the one letter amino acid code.

C(Acm)SVTC(Acm)G
dose-dependent effect on melanoma cell invasion [1]: same dose-dependent inhibition | blocking activity in metastasis and the other assays, peptide versus blocked analogue ([2]; mouse, in vivo): identical blocking activity | fewer lung metastasis as compared to saline or scrambled peptide controls ([2]; one bolus, 1 mg/mouse i.v. or 5 mg/mouse i.p., 10 days): 80% | large lung metastases ([2]; one bolus, 10 days): few large lung metastases | reduction in lung colonies with respect to buffer-treated ([3]; 0.01 mg/ml-treated animals): 27% | suppression of melanoma colonies ([3]; 1 mg/ml treated animals): more than 80% | stability toward oxidation [4]: more stable toward oxidation | adhesion of cells to dried peptide [5]: half as well as fibronectin and TSP-1

[dC]SVTCG (cysteine pairing not given here)
inhibition of TSP-1 mediated invasion ([1]; 500 μg/ml peptide top chamber, 20 μg/ml TSP-1 bottom chamber, 6 hours, FIG. 18): no effect | dose-dependent effect on melanoma cell invasion [1]: no effect | inhibition of metastasis (lung colonies) [6]: no effect | adhesion of cells to dried peptide [5]: did not promote adhesion

fTrp-Ser-Pro-Cys-Ser-Val-Thr-Cys-Gly-NH2 (For-WSPCSVTCG-NH2; cysteine pairing not given here) [p5]
% Buffer Control (platelet adhesion) [7]: 109% | % of Buffer Control (melanoma cell adhesion to thrombospondin) ([8]; 10 μg/ml): 99% | % of Buffer Control (melanoma cell adhesion to thrombospondin) ([8]; 50 μg/ml): 104% | % of Buffer Control (melanoma cell adhesion to thrombospondin) ([8]; 200 μg/ml): 89% | % of Buffer Control (melanoma cell adhesion to thrombospondin) ([8]; 300 μg/ml): 83% | % Buffer Control (platelet adhesion) [9]: 107% | Adhesion as % Thrombospondin [10]: display adhesive properties | Adhesion as % Thrombospondin ([10]; listed as P5): 79% | % buffer control (number of lung tumors) ([11]; 30 μg/mouse): 87% | number of tumors compared with controls [11]: statistically fewer tumors than controls | platelet aggregation [12]: inhibit platelet aggregation
